Measurements reported in PubChem BioAssay (NCI).
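Where inhibition never reached the appropriate level, the endpoint shown equals the highest concentration tested. Otherwise, values were interpolated linearly from a five-concentration, 48-hour dose response in 96-well plates. Here, GI50 denotes the concentration required for 50% inhibition of growth. TGI marks complete inhibition of growth.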

Columns and labels:
Experiment in all cases: growth of human tumour cells (NCI), 48 h
NCI-H226 lung = system: NCI-H226 lung
EKVX NSCLC = system: EKVX NSCLC
UACC-62 melanoma = system: UACC-62 melanoma
OVCAR-3 ovarian = system: OVCAR-3 ovarian
CCRF-CEM leukemia = system: CCRF-CEM leukemia
HCT-15 colon = system: HCT-15 colon
HCT-116 colon = system: HCT-116 colon
NCI-H460 lung = system: NCI-H460 lung
HL-60(TB) leukemia = system: HL-60(TB) leukemia
HOP-92 NSCLC = system: HOP-92 NSCLC

Row | SMILES | TGI (NCI-H226 lung) [µM] | TGI (EKVX NSCLC) [µM] | TGI (UACC-62 melanoma) [µM] | TGI (OVCAR-3 ovarian) [µM] | TGI (CCRF-CEM leukemia) [µM] | TGI (HCT-15 colon) [µM] | TGI (HCT-116 colon) [µM] | TGI (NCI-H460 lung) [µM] | TGI (HL-60(TB) leukemia) [µM] | TGI (HOP-92 NSCLC) [µM] | GI50 (OVCAR-3 ovarian) [µM] | GI50 (HCT-116 colon) [µM] | GI50 (NCI-H460 lung) [µM]
1 | CCOc1ccc(N/C(=C(/C(Cl)=C(/Cl)NC(C)(C)C)[N+](=O)[O-])n2nnc3ccccc32)cc1 | > 100 | > 100 | 65.3 | 72.2 | > 100 | 39 | 33.7 | > 100 |  |  |  |  | 
2 | ON=C(CC(O)(C(F)(F)Cl)C(F)(F)Cl)CC(O)(C(F)(F)Cl)C(F)(F)Cl | > 10 | > 10 | > 10 | > 10 | > 10 | > 10 | > 10 | > 10 | > 10 |  |  |  | 
3 | O=c1oc2c(Cl)cc(Cl)cc2cc1C1=CSC2=NCCN12 |  | > 100 | > 100 | 92.9 | > 100 | > 100 | > 100 | > 100 | > 100 | > 100 |  |  | 
4 | O=C(c1ccc(Cl)cc1)N(C(=S)OCCOc1ccccc1)c1ccccc1 |  | 48.6 | 35.1 | 30.9 | 42.7 | 42.2 | 30.9 | 62.7 | 38.6 | 30.7 |  |  | 
5 | CSc1nc2c(c(=O)[nH]1)N=C(c1ccccc1)CC(c1ccccc1)N2 (stereo unspecified) | > 100 | > 100 | 57.1 | > 100 | > 100 |  | 97.5 | 27.2 | 59.2 | > 100 |  |  | 
6 | CCOC(=O)C(Cl)(NC(=O)OCc1ccccc1)C(F)(F)F (stereo unspecified) | > 100 | > 100 |  | > 100 | > 100 | > 100 | > 100 |  | > 100 | > 100 |  |  | 
7 | CC[C@@]1(O)C(=O)OCc2c1cc1n(c2=O)Cc2c-1nc1ccccc1c2/C=N/NC(=O)c1ccc(N)cc1 | 0.528 | > 100 | 1.94 | > 100 |  | > 100 | 12 | 15.2 |  |  |  |  | 
8 | O=C1CC(=O)NC(=NNS(=O)(=O)c2ccc(Cl)cc2)N1 | > 100 |  | > 100 | > 100 | > 100 | > 100 | > 100 | > 100 | > 100 | > 100 |  |  | 
9 | Cc1ccc(Nc2nc3c(=O)n(C)c(=O)n(C)c3nc2Nc2ccc(C)cc2)cc1 | > 100 | 30 | 25 |  | > 100 | 11.8 | 22.1 | > 100 | > 100 | 23.5 |  |  | 
10 | COc1cc2c(c(OC)c1OC)-c1ccc(SC)cc1C(O)CC2 (stereo unspecified) |  | > 100 | 20.4 | > 100 | > 100 |  | > 100 | 19.5 | < 0.01 | > 100 |  |  | 
11 | Cc1nc2sccn2c1/C=C1/C(=O)Nc2cccc(Cl)c21 |  | > 100 | > 100 | > 100 | > 100 | > 100 | > 100 | > 100 | > 100 | > 100 |  |  | 
12 | Cc1cnc2[nH]c(-c3ccc4ccccc4c3)cc(=O)c2c1 | > 100 |  | > 100 | 10.6 |  | 21.7 | 14.5 | > 100 |  |  | 0.352 | 0.465 | 0.394
13 | CCOC(=O)NN(C(=O)OCC)c1c(C)cc(C)cc1C | > 100 | > 100 | > 100 | > 100 | > 100 | > 100 | > 100 | > 100 | > 100 |  |  |  | 
14 | CN(C)Cc1cc(N=Nc2ccc(Cl)cc2)cc(CN(C)C)c1O | 17.7 |  | 30.2 | 6.78 | 7 | 21 | 17.5 | 18.1 | 4.94 | 21.7 |  |  | 
15 | Cc1ccc(N(C)S(=O)(=O)c2ccccc2[N+](=O)[O-])cc1 | > 100 | > 100 |  | > 100 |  | > 100 | > 100 | > 100 | > 100 |  |  |  | 
16 | Cc1ccc(N/C(SCc2ccccc2)=C(\C(Cl)=C(Cl)Cl)[N+](=O)[O-])c(C)c1 | > 100 | > 100 | > 100 | 40.2 | > 100 | 34.9 | 37 | > 100 |  |  |  |  | 
17 | CCOC(=O)c1nnc2c(C#N)c(-c3ccccc3)c(C)n2c1N |  | > 100 | 66.6 | > 100 | > 100 | > 100 | > 100 | > 100 |  |  |  |  | 
18 | CCCCCCCCC/C=C1\CCC(CN(C)C)C1=O (stereo unspecified) | 23.9 | 4.81 | 5.73 |  | 4.82 | 4.66 | 3.67 | 12.5 | 5.31 | 4.39 |  |  | 
19 | CCOC(=O)c1nc2ccc(C(F)(F)F)cc2nc1Oc1ccc(C(=O)OC)cc1 | > 100 | > 100 | > 100 |  | > 100 | > 100 | > 100 | > 100 | > 100 | > 100 |  |  | 
20 | Cc1[nH]c(=O)nc(NNCc2ccc(Cl)cc2)c1C(=O)Nc1ccc(Cl)cc1 | > 100 |  | > 100 | > 100 | > 100 | > 100 | > 100 | > 100 | > 100 | > 100 |  |  | 
21 | Cc1ccc2c(/C=C/c3ccc(N(C)C)cc3)ccc(C(C)C)cc1-2 | > 100 | > 100 | > 100 | > 100 | > 100 |  | > 100 |  | 88.3 | > 100 |  |  | 
22 | N#Cc1c(-c2ccccc2)c(CN2CCCCC2)c(=O)n2c1[nH]c1ccccc12 | > 100 |  |  | 58.3 | > 100 | > 100 | > 100 | > 100 |  |  |  |  | 
23 | O=c1cc(-c2cccnc2)[nH]c2cc3c(cc12)OCO3 | > 89.6 |  | > 100 | > 20.7 | > 100 | > 64.3 | > 100 | > 100 | 31.9 | > 100 |  |  | 
24 | Cc1cccc(N/C(Sc2ccccc2)=C(/C(Cl)=C(Cl)Cl)[N+](=O)[O-])c1 | 35.2 | 42.7 | 54.6 | 21.6 | > 100 | 29.4 | 28.7 | > 100 |  |  |  |  | 
